Values belong to the compound of their own block, whether it stands above or below them. Where a SMILES comes first, the peptide text is derived from it. The star is where a group is joined. Cbz = O=C(OCc1ccccc1)*; OtBu = CC(C)(C)O*; CH2F = FC*
Tests used:
[1] = system: TDP-43 exon 9 skipping activity; assay: CFTR mini-gene splicing assay; assay type: cell-based; conditions: for CFTR exon 9 exclusion (endogenous TDP-43 background): HeLa cells cotransfected with CFTR minigene, RT-PCR, compared to GFP; for exon skipping activity in cells overexpressing Flag-TDP-43: cotransfected with CFTR mini-gene and Flag-TDP-43
Method: The CFTR mini-gene splicing assay was conducted as described elsewhere (Pagani et al., J. Biol. Chem., 275(28):21041-21047 (2000) and Ayala et al., FEBS Lett., 580(5):1339-1344 (2006)). In brief, Hela cells were co-transfected with 1 μg of minigene construct and 1 μg of GFP-fusion protein expression vector. […] Then, 2 μg of total RNA was used to synthesize cDNA using the SuperScript III First-Strand Synthesis System (Invitrogen). For the PCR, 2 μL of cDNA was used in a 20 μL of reaction according to the manufacturer's protocol for Taq PCR Core Kit (Qiagen). The amplification conditions consisted of an initial denaturation step at 94° C. for 3 minutes, followed by 30 cycles of 94° C. for 30 seconds, 62° C. for 60 seconds, and 72° C. for 90 seconds.

hnRNPA2 = target: T1, hnRNPA2 (Homo sapiens, UniProt P22626); assay: Co-immunoprecipitation with Flag-tagged hnRNPA2; assay type: binding; conditions: HeLa cells, probing for GFP
T1 construct: expressed in transfected cells; host or cells: HeLa cells
T1 sequence (P22626 1-341 isoform P22626-2, species assumed): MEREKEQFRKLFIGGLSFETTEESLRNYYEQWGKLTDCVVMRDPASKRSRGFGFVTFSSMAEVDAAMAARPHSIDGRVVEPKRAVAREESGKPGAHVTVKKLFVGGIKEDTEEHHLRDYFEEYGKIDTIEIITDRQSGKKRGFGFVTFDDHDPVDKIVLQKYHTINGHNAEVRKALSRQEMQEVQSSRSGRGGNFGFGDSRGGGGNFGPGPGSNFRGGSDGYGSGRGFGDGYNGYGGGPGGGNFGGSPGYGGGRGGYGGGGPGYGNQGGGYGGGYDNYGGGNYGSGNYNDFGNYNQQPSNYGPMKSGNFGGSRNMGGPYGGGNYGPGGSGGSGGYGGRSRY
Method: (§1) For co-immunoprecipitation studies, HeLa cells were transfected with 1 or 2 μg of each plasmid. Cells were harvested 48 hours later using Co-IP buffer (50 mM Tris-HCl, pH 7.4, 1 M NaCl, 1% Triton X-100, 5 mM EDTA) containing PMSF as well as protease and phosphatase inhibitors. The lysates were sonicated and centrifuged at 16,000 g for 20 minutes. The protein concentration of supernatants was determined by BCA assay (Thermo Scientific). Supernatant containing 500 μg of total protein was combined with Anti-Flag M2 agarose (Sigma) and incubated overnight at 4° C. with gentle shaking. The agarose was pelleted by centrifugation at 2,500 g for 5 minutes and washed with Co-IP buffer 6 times. Captured protein was eluted from the beads using loading buffer and resolved by SDS-PAGE for Western blot analysis.

Flag-TDP-43 = target: T2, Flag-TDP-43 (Homo sapiens, UniProt Q13148); assay: Co-immunoprecipitation with Flag-TDP-43; assay type: binding; conditions: HeLa cells, probing for GFP
T2 construct: the exon skipping activity in cells overexpressing full-length TDP-43 was examined; expressed in transfected cells; host or cells: HeLa cells
T2 sequence (Q13148 whole entry): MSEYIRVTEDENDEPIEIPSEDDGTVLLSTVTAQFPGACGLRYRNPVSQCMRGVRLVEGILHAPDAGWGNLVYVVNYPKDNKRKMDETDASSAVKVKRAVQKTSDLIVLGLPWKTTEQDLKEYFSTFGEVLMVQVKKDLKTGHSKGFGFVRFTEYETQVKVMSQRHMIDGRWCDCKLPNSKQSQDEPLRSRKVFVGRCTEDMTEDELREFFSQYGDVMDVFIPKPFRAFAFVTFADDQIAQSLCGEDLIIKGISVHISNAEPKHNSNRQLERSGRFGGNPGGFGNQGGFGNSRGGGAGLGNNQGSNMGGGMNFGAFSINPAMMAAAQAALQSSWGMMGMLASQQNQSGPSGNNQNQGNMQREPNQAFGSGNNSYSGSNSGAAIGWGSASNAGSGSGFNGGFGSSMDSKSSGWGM
Method: as §1

H4 neuroglioma cells = assay: Proteasome-induced toxicity, Western blot; assay type: cell-based
Method: H4 neuroglioma cells were grown in Opti-Mem plus 10% FBS and 1% pen-strep. Cells were plated in 6-well plates and at 90% confluency treated with 10 μM proteasome inhibitor I (PSI) (EMD Chemicals, Inc. San Diego, Calif.) or 100 μM pan-caspase inhibitor (Z-VAD-FMK) (EMD Chemicals, Inc. San Diego, Calif.) separately or in combination. Twenty-four hours after treatment, the cells were harvested for subsequent Western blot analysis in the Co-IP buffer (50 mM Tris-HCl, pH 7.4, 1 M NaCl, 1% Triton-X-100, 5 mM EDTA) plus 1% SDS, PMSF, and protease and phosphatase inhibitors.
Protein concentrations of cells lysates were measured by a standard BCA assay (Pierce, Rockford, Ill.). Then, the samples were heated in Laemmli's buffer, and equal amounts of protein were loaded into 10-well 10% or 4-20% Tris-glycine gels (Novex, San Diego, Calif.). After transfer, blots were blocked with 5% nonfat dry milk in TBST ([…]) for 1 hour, and then incubated with rabbit polyclonal TDP-43 antibody (1:500; ProteinTech Group, Inc, Chicago, Ill.), rabbit polyclonal caspase-3 antibody (1:1000; Cell Signaling, Beverly, Mass.), HSP70 (1:2000; Stressgen, Ann Arbor, Mich.), GADPH (1:5000; Biodesign International, Kennebunkport, Me.), or mouse monoclonal β-actin antibody (1:5000, Sigma, Saint Louis, Miss.) overnight at 4° C. Membranes were washed three times each for 10 minutes with TBST and then incubated with anti-mouse or anti-rabbit IgG conjugated to horseradish peroxidase (1:2000; Jackson ImmunoResearch, West Grove, Pa.) for 1 hour. Membranes were then washed three times each for 10 minutes, and protein expression was visualized by ECL treatment and exposure to film.

HeLa or H4 cells = assay: Immunofluorescence and confocal microscopy of TDP-43 localization; assay type: cell-based; conditions: 1 μM for 3 hours, in contrast to untreated cells
TDP-43 = assay: Proteolytic processing of TDP-43 and caspase-3, Western blot of HeLa and H4 cells; assay type: cell-based
Method: For progranulin small interfering RNA (siRNA) transfections, siRNA was predesigned by QIAGEN (QIAGEN Inc, Valencia, Calif.) for GenBank Accession Number NM—001012479, and the sense sequence was 5′-r([sequence])dTdT-3′ (SEQ ID NO:5). siRNA experiments were carried out in 6-well plates. Final siRNA concentration (progranulin or a validated negative control siRNA) per well was 20 nM in Opti-Mem, with 4 μL of siLentFect transfection reagent (Bio-Rad, Hercules, Calif.) used per well. This mixture was incubated in a final volume of 500 μL for 20 minutes and then added to 40%-50% confluent HeLa and H4 cells in 6-well dishes plated the previous day for a final in-well volume of 2 mL. Seventy-two hours after transfection, cells were harvested for subsequent Western blot analysis in lysis buffer containing Co-IP buffer (50 mM Tris-HCl, pH 7.4, 1 M NaCl, 1% Triton-X-100, 5 mM EDTA) plus 1% SDS, PMSF, and both a protease and phosphatase inhibitor mixture. For caspase inhibitor treatment, the cells were transfected with progranulin siRNA for 24 hours, and then the pan-caspase inhibitor (Z-VAD-FMK) (EMD Chemicals, Inc. San Diego, Calif.) was added to cells for additional 48 hours at a final concentration of 100 μM. Cell lysates was prepared as described herein. […]
Protein concentrations of cells lysates were measured by a standard BCA assay (Pierce, Rockford, Ill.). […]

HEK293 cells = assay: Inclusion formation and distribution of GFP-TDP-43 constructs, confocal microscopy; assay type: cell-based; conditions: for cellular distribution: HEK293, confocal fluorescence microscopy
Method: HEK293 cells, grown on glass coverslips, were transfected with 0.3 μg of expression vector (GFP, GFP-TDP-43, GFP-TDP-43-caspase-resistant, GFP-TDP-35, GFP-TDP-25, or GFP-TDP-ΔNR1) by using Lipofectamine 2000 (Invitrogen) according to the manufacturer's instructions then subjected to immunofluorescence analysis 48 hours later. To determine if the cytoplasmic inclusion were insoluble, some cells were treated with 0.2% Triton X-100 prior to fixation, in order to remove soluble protein. To determine if the formation of inclusion was aggresome-dependent, some cells were treated with 1 μM nocodazole (Sigma) for 24 hours after 6 hours of transfection. Finally, to examine if inclusions were ubiquitinated, cells were cotransfected with 0.3 μg of a TDP-43 construct and 0.5 μg HA-ubiquitin, then subjected to immunofluorescence analysis 72 hours later.
(§2) The cultured HEK293 and differentiated M17 cells were fixed with 4% paraformaldehyde in phosphate-buffered saline (PBS) at 4° C. for 15 minutes and permeabilized with PBS-0.5% Triton X-100 for 10 minutes. After blocking with 5% BSA for 1 hour at 37° C., the cells were incubated overnight at 4° C. with mouse monoclonal HA antibody (1:1000, Roche Applied Science), rabbit polyclonal activated caspase-3 antibody (1:250, Cell Signaling), rabbit polyclonal anti-pTDP-43 (which detects phosphorylated S409/S410; 1:1000, COSMO BIO CO., LTD), mouse monoclonal Flag antibody (1:1000, Sigma), rabbit polyclonal M2085 (1:1000), or rabbit polyclonal M2079 (1:1000). After washing, cells were incubated with the Alexa 568-conjugated goat anti-mouse IgG secondary antibody (1:1000, Molecular Probes) or anti-rabbit IgG secondary antibody (1:500, Molecular Probes) at 37° C. for 2 hours. Finally, Hoechst 33258 (1 μg/mL, Invitrogen) was used to stain the nuclei. Images were obtained on a Zeiss LSM 510 META confocal microscope.

[2] = system: differentiated M17 neuroblastoma cells; assay: Toxicity assay (LDH release, activated caspase-3 staining); assay type: cell-based; conditions: for activated caspase-3 staining: confocal microscopy; for LDH levels compared to cells expressing only GFP: medium collected 72 hours after transfection
Method: M17 neuroblastoma cells, seeded at 2.5×10^3 cells per well in 24-well plates, were grown in Neurobasal A/B27 medium containing Glutamax (Invitrogen) and 10 μM retinoic acid (Sigma) to induce differentiation. Seven days later, cells were transfected with 0.2 μg of expression vector for 72 hours. The medium was collected, and a LDH assay (Promega) was used to measure LDH levels as an indicator of toxicity. Then, cells were fixed, and immunofluorescent staining was done using an antibody against activated caspase-3 (1:250; Cell signaling) and the nuclear marker, bisbenzimide (Hoechst 33258).
as §2

[3] = co-treated with PSI 10 μM and caspase inhibitor 100 μM, 24 hours

binding to hnRNPA2 (hnRNPA2): did indeed interact | binding to Flag-TDP-43 (Flag-TDP-43): only weakly interacted
Compound: GFP-TDP76-414: GFP-tagged second C-terminal fragment (76-414) that retains nuclear distribution
CFTR exon 9 exclusion (endogenous TDP-43 background) [1]: did not promote exon 9 exclusion | exon skipping activity in cells overexpressing Flag-TDP-43 [1]: markedly reduced

Compound: CC[C@H](C)[C@H](NC(=O)OCc1ccccc1)C(=O)N[C@@H](CCC(=O)OC(C)(C)C)C(=O)N[C@@H](C)C(=O)N[C@H](C=O)CC(C)C [PSI] (Cbz-IE(OtBu)AL-aldehyde)
HSP70 levels (H4 neuroglioma cells; PSI 10 μM, 24 hours): increased | cleavage of endogenous cellular TDP-43 (H4 neuroglioma cells; PSI 10 μM, 24 hours): cleaved into ˜35 and ˜25 kD fragments | cleaved (active) caspase-3 levels (H4 neuroglioma cells; PSI 10 μM, 24 hours): marked increase | full length TDP-43 band (˜43 kD) (H4 neuroglioma cells; PSI 10 μM, 24 hours): reduction

binding to Flag-TDP-43 (Flag-TDP-43): bound strongly
Compound: GFP-TDP1-257: GFP-tagged C-terminal deletion product of TDP-43

binding to hnRNPA2 (hnRNPA2): failed to bind | binding to Flag-TDP-43 (Flag-TDP-43): bound strongly
Compound: GFP-TDP1-175: GFP-tagged C-terminal deletion mutant lacking the glycine rich region

Compound: CN[C@@H]1C[C@H]2O[C@@](C)([C@@H]1OC)n1c3ccccc3c3c4c(c5c6ccccc6n2c5c31)C(=O)NC4 [staurosporine]
TDP-43 cellular localization (HeLa or H4 cells): increased cytoplasmic TDP-43 staining

Compound: COC(=O)C[C@H](NC(=O)[C@H](C)NC(=O)[C@@H](NC(=O)OCc1ccccc1)C(C)C)C(=O)CF [Z-VAD (OMe)-FMK] (Cbz-Val-Ala-Asp(OMe)-CH2F)
caspase-3 activity (TDP-43; PGRN RNAi-treated HeLa cells plus pan-caspase inhibitor): suppresses | production of ˜35 and ˜25 kD TDP-43 fragments (TDP-43; PGRN siRNA-treated cells, inhibitor 100 μM for additional 48 hours): inhibited | HSP70 levels (H4 neuroglioma cells; PSI plus caspase inhibitor): persisted | PSI-induced caspase-3 activity (H4 neuroglioma cells; [3]): suppressed | generation of proteolytic TDP-43 fragments (H4 neuroglioma cells; [3]): inhibited

Compound: COC(=O)Nc1nc2ccc(C(=O)c3cccs3)cc2[nH]1 [nocodazole, reference compound]
effect on inclusions formed by GFP-TDP-25 and GFP-TDP-35 (HEK293 cells; 1 μM for 24 hours after 6 hours of transfection): not disrupted

Compound: GFP-TDP-43-caspase-resistant: GFP-tagged TDP-43 with aspartic acid at positions 89 and 219 substituted to glutamic acid
cellular distribution (HEK293 cells): localized almost exclusively to the nucleus | activated caspase-3 staining [2]: did not stain | LDH levels compared to cells expressing only GFP [2]: comparably increased

binding to hnRNPA2 (hnRNPA2): interact with hnRNPA2 | binding to Flag-TDP-43 (Flag-TDP-43): bound strongly
Compound: GFP-TDP-43: full-length wild-type TDP-43 tagged at the amino terminal with enhanced GFP
cellular distribution (HEK293 cells): localized almost exclusively to the nucleus | activated caspase-3 staining [2]: did not stain | LDH levels compared to cells expressing only GFP [2]: comparably increased | CFTR exon 9 exclusion (endogenous TDP-43 background) [1]: marked increase in exon exclusion | exon skipping activity in cells overexpressing Flag-TDP-43 [1]: promoted exon 9 exclusion

— patent US20100136573A1, “DIAGNOSING NEURODEGENERATIVE DISEASES” (priority 2007, published 2010)
